Assay results reported in ChEMBL document CHEMBL2434921, “New synthetic aliphatic sulfonamido-quaternary ammonium salts as anticancer chemotherapeutic agents” (2013).
Active and inactive are the calls of the source. The rule behind the calls is not given here.

Tests used:
NUGC-3 [1] = test: Growth of human NUGC3 cells at 0.3 uM after 48 hrs by SRB assay; conditions: NUGC-3, 48 h
ACHN [2] = test: Growth inhibition of human ACHN cells at 1 uM after 48 hrs by SRB assay; values are per cent of control
NCI-H23 [3] = test: Growth of human NCI-H23 cells at 0.3 uM after 48 hrs by SRB assay; conditions: NCI-H23, 48 h
NCI-H23 [4] = test: Growth inhibition of human NCI-H23 cells at 1 uM after 48 hrs by SRB assay; values are per cent of control; conditions: NCI-H23, 48 h
NUGC-3 [5] = test: Growth of human NUGC3 cells at 1 uM after 48 hrs by SRB assay; conditions: NUGC-3, 48 h
PC-3 [6] = test: Growth inhibition of human PC3 cells after 48 hrs by SRB assay; type: functional; conditions: PC-3, 48 h
NCI-H23 [7] = test: Growth inhibition of human NCI-H23 cells after 48 hrs by SRB assay; type: functional; conditions: NCI-H23, 48 h
NUGC-3 [8] = test: Growth inhibition of human NUGC3 cells at 10 uM after 48 hrs by SRB assay; values are per cent of control; conditions: NUGC-3, 48 h
ACHN [9] = test: Growth inhibition of human ACHN cells at 3 uM after 48 hrs by SRB assay; values are per cent of control
MDA-MB-231 [10] = test: Growth inhibition of human MDA-MB-231 cells after 48 hrs by SRB assay; type: functional; conditions: MDA-MB-231, 48 h
HCT-15 [11] = test: Growth inhibition of human HCT15 cells at 1 uM after 48 hrs by SRB assay; values are per cent of control; conditions: HCT-15, 48 h
HCT-15 [12] = test: Growth of human HCT15 cells at 3 uM after 48 hrs by SRB assay; conditions: HCT-15, 48 h
MDA-MB-231 [13] = test: Growth of human MDA-MB-231 cells at 0.1 uM after 48 hrs by SRB assay; conditions: MDA-MB-231, 48 h
NUGC-3 [14] = test: Growth inhibition of human NUGC3 cells after 48 hrs by SRB assay; type: functional; conditions: NUGC-3, 48 h
PC-3 [15] = test: Growth inhibition of human PC3 cells at 3 uM after 48 hrs by SRB assay; values are per cent of control; conditions: PC-3, 48 h
PC-3 [16] = test: Growth inhibition of human PC3 cells at 0.3 uM after 48 hrs by SRB assay; values are per cent of control; conditions: PC-3, 48 h
MDA-MB-231 [17] = test: Growth inhibition of human MDA-MB-231 cells at 0.3 uM after 48 hrs by SRB assay; values are per cent of control; conditions: MDA-MB-231, 48 h
MDA-MB-231 [18] = test: Growth of human MDA-MB-231 cells at 10 uM after 48 hrs by SRB assay; conditions: MDA-MB-231, 48 h
PC-3 [19] = test: Growth inhibition of human PC3 cells at 0.1 uM after 48 hrs by SRB assay; values are per cent of control; conditions: PC-3, 48 h
NUGC-3 [20] = test: Growth of human NUGC3 cells at 0.1 uM after 48 hrs by SRB assay; conditions: NUGC-3, 48 h
MDA-MB-231 [21] = test: Growth of human MDA-MB-231 cells at 1 uM after 48 hrs by SRB assay; conditions: MDA-MB-231, 48 h
NCI-H23 [22] = test: Growth of human NCI-H23 cells at 10 uM after 48 hrs by SRB assay; conditions: NCI-H23, 48 h
HCT-15 [23] = test: Growth inhibition of human HCT15 cells at 0.1 uM after 48 hrs by SRB assay; values are per cent of control; conditions: HCT-15, 48 h
NCI-H23 [24] = test: Growth inhibition of human NCI-H23 cells at 3 uM after 48 hrs by SRB assay; values are per cent of control; conditions: NCI-H23, 48 h
ACHN [25] = test: Growth inhibition of human ACHN cells after 48 hrs by SRB assay; type: functional
ACHN [26] = test: Growth of human ACHN cells at 0.3 uM after 48 hrs by SRB assay
PC-3 [27] = test: Growth inhibition of human PC3 cells at 1 uM after 48 hrs by SRB assay; values are per cent of control; conditions: PC-3, 48 h
MDA-MB-231 [28] = test: Growth of human MDA-MB-231 cells at 3 uM after 48 hrs by SRB assay; values are per cent of control; conditions: MDA-MB-231, 48 h
ACHN [29] = test: Growth of human ACHN cells at 0.1 uM after 48 hrs by SRB assay
[30] = target: Rho-related GTP-binding protein RhoB (Homo sapiens) (UniProt P62745); test: Transactivation of RhoB (unknown origin) transfected in human HeLa cells at 5 uM measured over 10 secs by dual luciferase reporter gene assay; type: cell-based
HCT-15 [31] = test: Growth of human HCT15 cells at 0.3 uM after 48 hrs by SRB assay; conditions: HCT-15, 48 h
ACHN [32] = test: Growth of human ACHN cells at 10 uM after 48 hrs by SRB assay
HCT-15 [33] = test: Growth inhibition of human HCT15 cells at 10 uM after 48 hrs by SRB assay; values are per cent of control; conditions: HCT-15, 48 h
NCI-H23 [34] = test: Growth inhibition of human NCI-H23 cells at 0.1 uM after 48 hrs by SRB assay; values are per cent of control; conditions: NCI-H23, 48 h
PC-3 [35] = test: Growth of human PC3 cells at 10 uM after 48 hrs by SRB assay; conditions: PC-3, 48 h
HCT-15 [36] = test: Growth inhibition of human HCT15 cells after 48 hrs by SRB assay; type: functional; conditions: HCT-15, 48 h
NUGC-3 [37] = test: Growth inhibition of human NUGC3 cells at 3 uM after 48 hrs by SRB assay; values are per cent of control; conditions: NUGC-3, 48 h

Chain of Rho-related GTP-binding protein RhoB (Homo sapiens) (P62745 whole entry): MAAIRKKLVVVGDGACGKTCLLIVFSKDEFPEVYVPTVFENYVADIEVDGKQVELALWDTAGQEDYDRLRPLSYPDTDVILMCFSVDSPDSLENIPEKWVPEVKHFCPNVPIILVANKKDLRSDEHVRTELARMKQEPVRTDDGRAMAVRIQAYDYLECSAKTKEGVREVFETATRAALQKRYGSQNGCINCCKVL

`CCCCCCCCCCCCCCS(=O)(=O)NCC(C)(C)C[N+](C)(C)C` showed a growth, % of control at 0.3 µM (NUGC-3 [1]) of 75.5%, a growth, % of control at 1 µM (ACHN [2]) of 79.4% and a growth, % of control at 0.3 µM (NCI-H23 [3]) of 76.8%. The growth, % of control at 1 µM (NCI-H23 [4]) was 31.4%, the growth, % of control at 1 µM (NUGC-3 [5]) was 35.9% and the GI50 (PC-3 [6]) was 350 nM. The GI50 (NCI-H23 [7]) was 310 nM, the growth, % of control at 10 µM (NUGC-3 [8]) was -8.2% and the growth, % of control at 3 µM (ACHN [9]) was 57.1%. For the same compound, the GI50 (MDA-MB-231 [10]) was 2110 nM, the growth, % of control at 1 µM (HCT-15 [11]) was 89.2% and the growth, % of control at 3 µM (HCT-15 [12]) was 48.2%. For the same compound, the growth, % of control at 0.1 µM (MDA-MB-231 [13]) was 94.3%, the GI50 (NUGC-3 [14]) was 320 nM and the growth, % of control at 3 µM (PC-3 [15]) was 9.8%. For the same compound, the growth, % of control at 0.3 µM (PC-3 [16]) was 73.8%, the growth, % of control at 0.3 µM (MDA-MB-231 [17]) was 88.5% and the growth, % of control at 10 µM (MDA-MB-231 [18]) was 31%. It also gave a growth, % of control at 0.1 µM (PC-3 [19]) of 76.1%, a growth, % of control at 0.1 µM (NUGC-3 [20]) of 81.8% and a growth, % of control at 1 µM (MDA-MB-231 [21]) of 77.6%. The growth, % of control at 10 µM (NCI-H23 [22]) was -30.5%, the growth, % of control at 0.1 µM (HCT-15 [23]) was 98.1% and the growth, % of control at 3 µM (NCI-H23 [24]) was 1.5%. For the same compound, the GI50 (ACHN [25]) was 2600 nM, the growth, % of control at 0.3 µM (ACHN [26]) was 84.8% and the growth, % of control at 1 µM (PC-3 [27]) was 46%. For the same compound, the growth, % of control at 3 µM (MDA-MB-231 [28]) was 55.9%, the growth, % of control at 0.1 µM (ACHN [29]) was 91.3% and the Activity [30] was “Active”. For the same compound, the growth, % of control at 0.3 µM (HCT-15 [31]) was 94.3%, the growth, % of control at 10 µM (ACHN [32]) was 37.4% and the growth, % of control at 10 µM (HCT-15 [33]) was 19.4%. It also gave a growth, % of control at 0.1 µM (NCI-H23 [34]) of 88.5%, a growth, % of control at 10 µM (PC-3 [35]) of -0.3% and a GI50 (HCT-15 [36]) of 1700 nM. For the same compound, the growth, % of control at 3 µM (NUGC-3 [37]) was 8.9%.
Work on `CCCCCCCCCCCCCCCCS(=O)(=O)N(C)CC[N+](C)(C)C` yielded a growth, % of control at 0.3 µM (NUGC-3 [1]) of 74.1%, a growth, % of control at 1 µM (ACHN [2]) of 69.7% and a growth, % of control at 0.3 µM (NCI-H23 [3]) of 101%. The growth, % of control at 1 µM (NCI-H23 [4]) was 80.3%, the growth, % of control at 1 µM (NUGC-3 [5]) was 32.2% and the GI50 (PC-3 [6]) was 620 nM. For the same compound, the GI50 (NCI-H23 [7]) was 1290 nM, the growth, % of control at 10 µM (NUGC-3 [8]) was 2.7% and the growth, % of control at 3 µM (ACHN [9]) was 51.4%. The GI50 (MDA-MB-231 [10]) was 930 nM, the growth, % of control at 1 µM (HCT-15 [11]) was 55.3% and the growth, % of control at 3 µM (HCT-15 [12]) was 22.4%. It also gave a growth, % of control at 0.1 µM (MDA-MB-231 [13]) of 98.2%, a GI50 (NUGC-3 [14]) of 330 nM and a growth, % of control at 3 µM (PC-3 [15]) of 17.6%. The growth, % of control at 0.3 µM (PC-3 [16]) was 90.3%, the growth, % of control at 0.3 µM (MDA-MB-231 [17]) was 95.7% and the growth, % of control at 10 µM (MDA-MB-231 [18]) was 8%. For the same compound, the growth, % of control at 0.1 µM (PC-3 [19]) was 99.4%, the growth, % of control at 0.1 µM (NUGC-3 [20]) was 89.4% and the growth, % of control at 1 µM (MDA-MB-231 [21]) was 66.8%. The growth, % of control at 10 µM (NCI-H23 [22]) was 6.8%, the growth, % of control at 0.1 µM (HCT-15 [23]) was 95.7% and the growth, % of control at 3 µM (NCI-H23 [24]) was 41.8%. For the same compound, the GI50 (ACHN [25]) was 1600 nM, the growth, % of control at 0.3 µM (ACHN [26]) was 90.3% and the growth, % of control at 1 µM (PC-3 [27]) was 56.8%. For the same compound, the growth, % of control at 3 µM (MDA-MB-231 [28]) was 32.7%, the growth, % of control at 0.1 µM (ACHN [29]) was 99.4% and the Activity [30] was “Active”. The growth, % of control at 0.3 µM (HCT-15 [31]) was 91.4%, the growth, % of control at 10 µM (ACHN [32]) was 25.5% and the growth, % of control at 10 µM (HCT-15 [33]) was 19.5%. It also gave a growth, % of control at 0.1 µM (NCI-H23 [34]) of 103%, a growth, % of control at 10 µM (PC-3 [35]) of -3.1% and a GI50 (HCT-15 [36]) of 700 nM. For the same compound, the growth, % of control at 3 µM (NUGC-3 [37]) was 14.4%.
